# Values of other authors in patent publication US7803400B2, “Artificial low-density lipoprotein carriers for transport of substances across the blood-brain barrier” (Blanchette Rockefeller Neurosciences Institute, priority 2002, dated 2010).
# Tests used:
# PKCC = biological target: T1, PKCC (Homo sapiens, UniProt Q02156)
# T1 sequence (Q02156 1-737): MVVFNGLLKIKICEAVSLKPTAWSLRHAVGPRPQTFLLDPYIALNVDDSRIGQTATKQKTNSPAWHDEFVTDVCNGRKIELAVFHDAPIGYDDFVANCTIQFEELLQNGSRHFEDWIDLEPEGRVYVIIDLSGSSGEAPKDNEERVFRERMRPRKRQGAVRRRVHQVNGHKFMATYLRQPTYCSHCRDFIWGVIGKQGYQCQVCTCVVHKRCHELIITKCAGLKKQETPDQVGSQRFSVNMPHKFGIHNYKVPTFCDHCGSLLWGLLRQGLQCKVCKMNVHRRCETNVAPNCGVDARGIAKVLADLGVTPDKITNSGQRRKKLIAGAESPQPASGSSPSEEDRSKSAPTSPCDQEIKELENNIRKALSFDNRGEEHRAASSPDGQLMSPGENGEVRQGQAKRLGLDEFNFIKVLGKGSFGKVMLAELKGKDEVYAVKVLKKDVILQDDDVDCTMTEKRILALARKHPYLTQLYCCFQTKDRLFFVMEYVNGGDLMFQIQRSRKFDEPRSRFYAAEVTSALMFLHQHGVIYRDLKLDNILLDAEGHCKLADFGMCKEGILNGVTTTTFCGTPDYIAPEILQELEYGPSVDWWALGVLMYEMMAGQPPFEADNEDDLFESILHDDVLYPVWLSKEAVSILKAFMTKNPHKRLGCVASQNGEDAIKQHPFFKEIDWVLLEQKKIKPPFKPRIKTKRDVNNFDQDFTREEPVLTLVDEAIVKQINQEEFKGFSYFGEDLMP
# [1] = test system: murine leukemias and solid tumors
# [2] = test system: cyclin dependent kinase 2 (Cdk2); settings: at 5 ng/ml
compound,measurement,setting,value
"CCCCCC1CC1CC1CC1CCCCCCCC(=O)O (stereo not drawn) [DCP-LA, 2-[(2-pentylcyclopropyl)methyl]cyclopropaneoctanoic acid]",concentration of maximal effect on PKC activation,PKCC,100 nM
CCCCCCCC(=O)O[C@H]1/C(=C/C(=O)OC)C[C@H]2C[C@H](CO)OC(=O)C[C@H](O)CC3CCC[C@H](C[C@@H]4CCO[C@H](/C=C/C(C)(C)[C@]1(O)O2)O4)O3 [Analog 1],potency relative to bryostatin-1,PKC,about 100 times
same,Ki,PKC; read-out: PKC Affin,0.25 nM
Gnidimacrin,concentrations of potent antitumor activity,[1],0.1 to 1 nM
same,concentration at which it acts as PKC activator,PKC in K562 cells,≈ 3 nM
same,inhibition of Cdk2,[2],100%
